What was measured:
[1] = target: T1, human platelet derived endothelial cell growth factor (thymidine phosphorylase) (Homo sapiens, UniProt P19971); assay: Inhibitory activity to platelet derived endothelial cell growth factor (thymidine phosphorylase); format: biochemical; details: 37° C., 90 minutes, pH 5.6, absorbance at 300 nm; from 0.1, 1, 10 and 100 μg/ml
T1 construct: purchased Sigma
T1 sequence (P19971 11-482): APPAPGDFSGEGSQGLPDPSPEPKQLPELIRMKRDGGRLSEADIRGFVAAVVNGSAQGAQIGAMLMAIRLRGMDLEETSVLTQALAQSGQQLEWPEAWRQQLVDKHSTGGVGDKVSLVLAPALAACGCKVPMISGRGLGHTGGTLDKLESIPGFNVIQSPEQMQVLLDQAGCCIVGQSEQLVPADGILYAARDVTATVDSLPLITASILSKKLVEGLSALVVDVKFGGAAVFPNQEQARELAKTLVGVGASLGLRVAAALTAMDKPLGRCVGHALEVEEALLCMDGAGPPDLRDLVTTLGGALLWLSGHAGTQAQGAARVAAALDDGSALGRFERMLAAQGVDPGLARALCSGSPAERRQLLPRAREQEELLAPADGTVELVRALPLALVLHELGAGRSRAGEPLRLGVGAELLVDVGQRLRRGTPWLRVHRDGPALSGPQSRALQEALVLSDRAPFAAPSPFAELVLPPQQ
Description: (1) 100 mmol/l of thymidine (produced by Wako Pure Chemical Industries, Ltd.), 500 mmol/l of K2HPO4 (produced by Nacalai Tesque) and 0.5 mol/l of 2-morpholinoethansulfonic acid.H2O (pH 5.6; produced by Dojindo Laboratories) were prepared.
(2) The compound of the general formula (I) was dissolved in dimethylsulfoxide solution having a concentration of at most 10%, to prepare a test sample having a concentration of the compound of the general formula (I) of 1.0 mg/ml.
(3) 5 μg/ml of human platelet derived endothelial cell growth factor (produced by Sigma) was prepared. […]
(6) Absorbance of the solution for measurement was measured by using a spectrophotometer (SPECTRA max 250: produced by Molecular Devices) at a wavelength of 300 nm.
(7) Sterile water was added to 100 μl of buffer solution having 0.5 mol/l of 2-morpholinoethansulfonic acid.H2O (pH 5.6) and 20 μl of the test sample having a concentration of the compound of the general formula (I) of 1.0 mg/ml, so that the total amount was 200 μl, to prepare a solution of the compound of the general formula (I) having a final concentration of 100 μg/ml. Absorbance of a liquid having 50 μl of 2N-NaOH added to 50 μl of the solution, as a sample for measuring background, was measured at a wavelength of 300 nm. […]

aminopeptidase N = aminopeptidase N (Homo sapiens, UniProt P15144); assay: Inhibitory effect to aminopeptidase N (L-alanine-7-amido-4-methylcoumarin substrate, MOLT-4 cells, fluorescence); format: biochemical; details: based on fluorescence intensity of the control fraction (Table 13, Test Example 9)
Description: As the substrate buffer solution, 100 mM Hepes buffer solution pH 7.6 (including 120 mM sodium chloride, 5 mM potassium chloride, 1.2 mM magnesium sulfate and 0.5% bovine serum albumin) was used. After the reaction was finished, fluorescence intensity was measured by using MTP-32 Colonna microplate reader (produced by Colonna Electric) under measurement condition at an excitation wavelength of 380 nm and at an emission wavelength of 440 nm. […] The values in the Table are based on fluorescence intensity of the control fraction, and represent the enzyme-inhibitory activity as IC50 (μg/ml).

aminopeptidase N, sequence (P15144 2-967): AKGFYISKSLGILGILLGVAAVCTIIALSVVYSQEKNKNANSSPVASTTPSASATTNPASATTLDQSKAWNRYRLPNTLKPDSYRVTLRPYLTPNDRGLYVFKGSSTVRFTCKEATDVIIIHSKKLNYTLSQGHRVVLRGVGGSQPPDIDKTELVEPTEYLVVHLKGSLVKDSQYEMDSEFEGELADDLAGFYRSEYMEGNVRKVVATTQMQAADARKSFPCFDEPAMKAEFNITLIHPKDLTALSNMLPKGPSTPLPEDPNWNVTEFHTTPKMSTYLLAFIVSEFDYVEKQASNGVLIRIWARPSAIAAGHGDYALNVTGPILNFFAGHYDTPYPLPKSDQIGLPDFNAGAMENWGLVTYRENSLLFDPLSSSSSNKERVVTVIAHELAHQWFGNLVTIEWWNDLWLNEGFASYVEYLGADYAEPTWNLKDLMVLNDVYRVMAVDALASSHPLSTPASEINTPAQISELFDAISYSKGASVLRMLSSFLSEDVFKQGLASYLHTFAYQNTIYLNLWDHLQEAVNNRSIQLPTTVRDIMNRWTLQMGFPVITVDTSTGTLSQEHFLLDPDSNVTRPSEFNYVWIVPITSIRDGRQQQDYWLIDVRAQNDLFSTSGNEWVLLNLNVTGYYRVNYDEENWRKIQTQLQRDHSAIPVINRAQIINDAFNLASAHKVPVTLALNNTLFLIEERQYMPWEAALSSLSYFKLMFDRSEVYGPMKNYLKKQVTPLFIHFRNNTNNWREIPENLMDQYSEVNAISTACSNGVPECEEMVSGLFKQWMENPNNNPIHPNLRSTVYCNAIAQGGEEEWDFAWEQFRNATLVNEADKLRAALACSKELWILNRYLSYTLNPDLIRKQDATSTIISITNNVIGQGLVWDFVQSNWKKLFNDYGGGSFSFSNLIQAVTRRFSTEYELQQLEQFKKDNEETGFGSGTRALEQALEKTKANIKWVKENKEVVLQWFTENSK

Row | SMILES | IC50 [1] [µM] | Aminopeptidase N inhibiting activity IC50 (aminopeptidase N) [µg/mL]
1 | Cc1cccc(C)c1N1C(=O)Cc2ccccc2C1=O [Compound A-2, N-(2,6-dimethylphenyl)-homophthalimide] | 230 | –
2 | O=C1Cc2ccccc2C(=O)N1c1ccccc1 [Compound A-1, N-phenyl-homophthalimide] | 160 | –
3 | CSc1ccccc1N1C(=O)c2cccc(O)c2C1=O [Compound 194] | – | 38
